IC50 data for 41 compounds are collected here from patent US8604218B2, “Cytoskeletal active rho kinase inhibitor compounds, composition and use” (Inspire Pharmaceuticals, Inc., priority 2006, dated 2013).

For the test, the target named is ROCK2 (Homo sapiens (Human), UniProt O75116). In words: Rho Kinase Inhibition Assay (IMAP fluorescence polarization). The class given is biochemical. The note with it: isolated enzyme, 10 μM ATP, 60 minutes at room temperature. How it is done:
Following the preincubation, 10 μM ATP was added to initiate the reaction. After 60 minutes at room temperature, Molecular Devices IMAP™ binding solution was added to bind phosphorylated substrate. After 30 minutes of incubation in the presence of the IMAP™ beads the fluorescence polarization was read and the ratio was reported as mP. IC50 results were calculated using the Prism software from Graphpad.
See Tian et al., Arch. Ophthalmol. […] Ophthalmol. Vis. […] Ophthalmol. […] Cytoskel. […] Ophthalmol. Vis. […] Ophthalmol. Vis.
On the technique in general: In fluorescence polarisation assays a small probe gives low polarisation when free and higher when bound to something large.

ROCK2, sequence (O75116 11-552): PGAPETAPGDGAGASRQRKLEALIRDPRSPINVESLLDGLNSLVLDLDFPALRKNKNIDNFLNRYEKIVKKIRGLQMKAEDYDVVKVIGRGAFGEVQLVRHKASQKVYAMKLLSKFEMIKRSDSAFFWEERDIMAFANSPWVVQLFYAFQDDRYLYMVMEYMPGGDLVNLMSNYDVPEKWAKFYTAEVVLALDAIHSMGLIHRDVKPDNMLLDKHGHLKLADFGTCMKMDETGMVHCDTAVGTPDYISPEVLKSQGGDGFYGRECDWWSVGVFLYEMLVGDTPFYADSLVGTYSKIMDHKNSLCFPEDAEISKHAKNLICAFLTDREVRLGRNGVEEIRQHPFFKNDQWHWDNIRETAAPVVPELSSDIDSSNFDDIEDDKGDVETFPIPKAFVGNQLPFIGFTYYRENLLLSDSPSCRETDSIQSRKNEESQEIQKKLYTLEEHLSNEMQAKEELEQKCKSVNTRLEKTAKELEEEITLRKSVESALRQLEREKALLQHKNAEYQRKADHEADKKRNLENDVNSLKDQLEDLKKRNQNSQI

What is called IC50 is the concentration that gives 50% inhibition. A high value points to lower potency. Compound `CC(=O)NCc1cccc(CN2CCCC(Nc3ccc4[nH]ncc4c3)C2)c1` (centres unmarked) [Compound 1.122, N-(3-((3-(1H-indazol-5-ylamino)piperidin-1-yl)methyl)benzyl)acetamide] had an IC50 of 0.254 µM.

In the case of `Clc1ccc(Oc2cccc(CN3CCCC(Nc4ccc5[nH]ncc5c4)C3)c2)cc1` (centres unmarked) [Compound 1.069, N-(1-(3-(4-chlorophenoxy)benzyl)piperidin-3-yl)-1H-indazol-5-amine], half-maximal inhibition (IC50) required 6.05 µM.

In turn, `OCCOc1cccc(CN2CCC(Nc3ccc4[nH]ncc4c3)C2)c1` (centres unmarked) [Compound 1.088, 2-(3-((3-(1H-indazol-5-ylamino)pyrrolidin-1-yl)methyl)phenoxy)ethanol] had an IC50 of 0.651 µM.

The compound `c1cc2c(cc1CN1CCCC(Nc3ccc4[nH]ncc4c3)C1)OCCO2` (centres unmarked) [Compound 1.053, N-(1-((2,3-dihydrobenzo[b][1,4]dioxin-6-yl)methyl)piperidin-3-yl)-1H-indazol-5-amine] returned an IC50 of 0.189 µM.

The compound `Cc1ccc(CN2CC[C@@H](Nc3cccc4cnccc34)C2)cc1` [Compound 2.025, (R)-N-(1-(4-methylbenzyl)pyrrolidin-3-yl)isoquinolin-5-amine] returned an IC50 of 0.0299 µM.

In turn, `CCSc1ccc(CN2CCCC(Nc3ccc4[nH]ncc4c3)C2)cc1` (centres unmarked) [Compound 1.017, N-(1-(4-(ethylthio)benzyl)piperidin-3-yl)-1H-indazol-5-amine] returned an IC50 of 0.215 µM.

Turning to `NCCOc1cccc(CN2CCCC(Nc3ccc4[nH]ncc4c3)C2)c1` (centres unmarked) [Compound 1.085, N-(1-(3-(2-aminoethoxy)benzyl)piperidin-3-yl)-1H-indazol-5-amine], the IC50 was determined as 1.68 µM.

Compound `Cc1ccc(CN2CCCC(Nc3ccc4[nH]ncc4c3)C2)c(C)c1` (centres unmarked) [Compound 1.024, N-(1-(2,4-dimethylbenzyl)piperidin-3-yl)-1H-indazol-5-amine] had a concentration for half-maximal inhibition (IC50) of 0.107 µM. This IC50 is about 16-fold lower than that of the compound before.

For the compound `Cc1ccc(CN2CCC[C@H](Nc3ccc4[nH]ncc4c3)C2)cc1` [Compound 1.078, (S)-N-(1-(4-methylbenzyl)piperidin-3-yl)-1H-indazol-5-amine], the IC50 is 0.0631 µM.

`CCOC(=O)COc1cccc(CN2CCCC(Nc3ccc4[nH]ncc4c3)C2)c1` (centres unmarked) [Compound 1.060, ethyl 2-(3-((3-(1H-indazol-5-ylamino)piperidin-1-yl)methyl)phenoxy)acetate] showed an IC50 of 0.0872 µM.

In turn, `CN(C)Cc1ccc(CN2CCCC(Nc3ccc4[nH]ncc4c3)C2)cc1` (centres unmarked) [Compound 1.019, N-(1-(4-((dimethylamino)methyl)benzyl)piperidin-3-yl)-1H-indazol-5-amine] returned an IC50 of 13.4 µM.

With `OCCOc1cccc(CN2CC[C@H](Nc3ccc4[nH]ncc4c3)C2)c1` [Compound 1.094, (S)-2-(3-((3-(1H-indazol-5-ylamino)pyrrolidin-1-yl)methyl)phenoxy)ethanol], it took 0.466 µM to reach half-maximal inhibition (IC50).

In turn, `OCCn1ccc2cc(CN3CCCC(Nc4ccc5[nH]ncc5c4)C3)ccc21` (centres unmarked) [Compound 1.114, 2-(5-((3-(1H-indazol-5-ylamino)piperidin-1-yl)methyl)-1H-indol-1-yl)ethanol] came in with an IC50 of 1.49 µM. Against the preceding compound, the IC50 is about 3.2-fold higher.

With `N#Cc1cccc(CN2CCCC(Nc3cccc4cnccc34)C2)c1` (centres unmarked) [Compound 2.003, 3-((3-(isoquinolin-5-ylamino)piperidin-1-yl)methyl)benzonitrile], the midpoint of inhibition, the IC50, lay at 5.72 µM.

Regarding `Nc1n[nH]c2ccc(NC3CCCN(Cc4ccccc4)C3)cc12` (centres unmarked) [Compound 1.050, N5-(1-benzylpiperidin-3-yl)-1H-indazole-3,5-diamine], the IC50 came to 1.04 µM. Against the preceding compound, the IC50 is about 5.5-fold lower.

Compound `OCCOc1cccc(CN2CCC[C@H](Nc3cccc4cnccc34)C2)c1` [Compound 2.036, (S)-2-(3-((3-(isoquinolin-5-ylamino)piperidin-1-yl)methyl)phenoxy)ethanol] had an IC50 of 0.16 µM.

In the case of `CC(=O)c1ccc(CN2CCCC(Nc3ccc4[nH]ncc4c3)C2)cc1` (centres unmarked) [Compound 1.036, 1-(4-((3-(1H-indazol-5-ylamino)piperidin-1-yl)methyl)phenyl)ethanone], it took 1.02 µM to reach half-maximal inhibition (IC50).

In turn, `NC(=O)Cn1ccc2cc(CN3CCCC(Nc4ccc5[nH]ncc5c4)C3)ccc21` (centres unmarked) [Compound 1.105, 2-(5-((3-(1H-indazol-5-ylamino)piperidin-1-yl)methyl)-1H-indol-1-yl)acetamide] yielded an IC50 of 0.172 µM.

In turn, `C#Cc1ccc(CN2CCCC(Nc3ccc4[nH]ncc4c3)C2)cc1O` (centres unmarked) [Compound 1.083, 5-((3-(1H-indazol-5-ylamino)piperidin-1-yl)methyl)-2-ethynylphenol] returned an IC50 of 7.31 µM. Compared with the last compound, the IC50 is about 42-fold higher.

For the compound `Clc1ccc(CN2CC[C@H](Nc3cccc4cnccc34)C2)cc1` [Compound 2.030, (S)-N-(1-(4-chlorobenzyl)pyrrolidin-3-yl)isoquinolin-5-amine], the IC50 is 2.46 µM.

The compound `NS(=O)(=O)c1cccc(CN2CCCC(Nc3ccc4[nH]ncc4c3)C2)c1` (centres unmarked) [Compound 1.056, 3-((3-(1H-indazol-5-ylamino)piperidin-1-yl)methyl)benzenesulfonamide] showed a half-maximal inhibitory concentration (IC50) of 0.435 µM.

`CN(C)c1ccc(CN2CCCC(Nc3ccc4[nH]ncc4c3)C2)cc1` (centres unmarked) [Compound 1.032, N-(1-(4-(dimethylamino)benzyl)piperidin-3-yl)-1H-indazol-5-amine] yielded an IC50 of 1.94 µM. Against the preceding compound, the IC50 is about 4.5-fold higher.

Turning to `NC(=O)c1cccc(CN2CCCC(Nc3ccc4[nH]ncc4c3)C2)c1` (centres unmarked) [Compound 1.055, 3-((3-(1H-indazol-5-ylamino)piperidin-1-yl)methyl)benzamide], the IC50 worked out at 0.472 µM.

On to `N#Cc1ccc(CN2CCCC(Nc3ccc4[nH]ncc4c3)C2)cc1` (centres unmarked) [Compound 1.038, 4-((3-(1H-indazol-5-ylamino)piperidin-1-yl)methyl)benzonitrile], for which the IC50 came to 2.76 µM.

The compound `CCS(=O)(=O)Nc1cccc(CN2CC[C@@H](Nc3cccc4cnccc34)C2)c1` [Compound 2.041, (R)-N-(3-((3-(isoquinolin-5-ylamino)pyrrolidin-1-yl)methyl)phenyl)ethanesulfonamide] returned an IC50 of 0.168 µM.

In turn, `Cc1ccc(CN2CCCC(Nc3ccc4[nH]ncc4c3)C2)cc1O` (centres unmarked) [Compound 1.059, 5-((3-(1H-indazol-5-ylamino)piperidin-1-yl)methyl)-2-methylphenol] displayed an IC50 of 0.032 µM.

As for `NC(=O)Cn1ccc2ccc(CN3CCC[C@H](Nc4ccc5[nH]ncc5c4)C3)cc21` [Compound 1.107, (S)-2-(6-((3-(1H-indazol-5-ylamino)piperidin-1-yl)methyl)-1H-indol-1-yl)acetamide], the midpoint of inhibition, the IC50, lay at 0.148 µM.

Regarding `CCS(=O)(=O)Nc1cccc(CN2CCCC(Nc3ccc4[nH]ncc4c3)C2)c1` (centres unmarked) [Compound 1.120, N-(3-((3-(1H-indazol-5-ylamino)piperidin-1-yl)methyl)phenyl)ethanesulfonamide], the IC50 worked out at 0.109 µM.

Compound `Cc1ccc(CN2CC[C@H](Nc3cccc4cnccc34)C2)cc1` [Compound 2.028, (S)-N-(1-(4-methylbenzyl)pyrrolidin-3-yl)isoquinolin-5-amine] returned an IC50 of 0.789 µM.

Compound `O=C(O)Cn1ccc2cc(CN3CCCC(Nc4ccc5[nH]ncc5c4)C3)ccc21` (centres unmarked) [Compound 1.119, 2-(5-((3-(1H-indazol-5-ylamino)piperidin-1-yl)methyl)-1H-indol-1-yl)acetic acid] had a concentration for half-maximal inhibition (IC50) of 3.63 µM.

`CS(=O)(=O)Nc1cccc(CN2CCC[C@H](Nc3cccc4cnccc34)C2)c1` [Compound 2.037, (S)-N-(3-((3-(isoquinolin-5-ylamino)piperidin-1-yl)methyl)phenyl)methanesulfonamide] showed an IC50 of 3.06 µM.

`FC(F)(F)c1cccc(Oc2cccc(CN3CCCC(Nc4ccc5[nH]ncc5c4)C3)c2)c1` (centres unmarked) [Compound 1.070, N-(1-(3-(3-(trifluoromethyl)phenoxy)benzyl)piperidin-3-yl)-1H-indazol-5-amine] displayed an IC50 of 6.68 µM.

The compound `Clc1ccc(CN2CCC(Nc3cccc4cnccc34)C2)cc1Cl` (centres unmarked) [Compound 2.016, N-(1-(3,4-dichlorobenzyl)pyrrolidin-3-yl)isoquinolin-5-amine] showed an IC50 of 0.716 µM.

Regarding `OCCOc1cccc(CN2CC[C@@H](Nc3ccc4[nH]ncc4c3)C2)c1` [Compound 1.096, (R)-2-(3-((3-(1H-indazol-5-ylamino)pyrrolidin-1-yl)methyl)phenoxy)ethanol], the IC50 was found to be 1.3 µM.

Compound `O=C(O)COc1cccc(CN2CC[C@@H](Nc3cccc4cnccc34)C2)c1` [Compound 2.044, (R)-2-(3-((3-(isoquinolin-5-ylamino)pyrrolidin-1-yl)methyl)phenoxy)acetic acid] returned an IC50 of 0.433 µM.

Compound `OCCOc1cccc(CN2CC[C@H](Nc3cccc4cnccc34)C2)c1` [Compound 2.032, (S)-2-(3-((3-(isoquinolin-5-ylamino)pyrrolidin-1-yl)methyl)phenoxy)ethanol] came in with an IC50 of 5.33 µM.

Regarding `NCc1cccc(CN2CCCC(Nc3ccc4[nH]ncc4c3)C2)c1` (centres unmarked) [Compound 1.061, N-(1-(3-(aminomethyl)benzyl)piperidin-3-yl)-1H-indazol-5-amine], it took 0.282 µM to reach half-maximal inhibition (IC50).

Regarding `COc1ccc(CN2CCC(Nc3cccc4cnccc34)C2)cc1` (centres unmarked) [Compound 2.017, N-(1-(4-methoxybenzyl)pyrrolidin-3-yl)isoquinolin-5-amine], inhibition was half-maximal at 0.322 µM (IC50). The IC50 values of the last two compounds are within 1.5-fold of each other.

Compound `FC(F)(F)Oc1ccc(CN2CCCC(Nc3ccc4[nH]ncc4c3)C2)cc1` (centres unmarked) [Compound 1.022, N-(1-(4-(trifluoromethoxy)benzyl)piperidin-3-yl)-1H-indazol-5-amine] gave an IC50 of 1.61 µM. Compared with the last compound, the IC50 is about 5-fold higher.

`C#Cc1cccc(CN2CCCC(Nc3ccc4[nH]ncc4c3)C2)c1` (centres unmarked) [Compound 1.047, N-(1-(3-ethynylbenzyl)piperidin-3-yl)-1H-indazol-5-amine] returned an IC50 of 0.057 µM.

Compound `CC(C)(C)OC(=O)Cn1ccc2cc(CN3CCCC(Nc4ccc5[nH]ncc5c4)C3)ccc21` (centres unmarked) [Compound 1.112, tert-butyl 2-(5-((3-(1H-indazol-5-ylamino)piperidin-1-yl)methyl)-1H-indol-1-yl)acetate] yielded an IC50 of 2.03 µM.
